Measured values published in patent publication US20150246087A1, “EXTRACTS AND THERAPEUTIC USES THEREOF” (REGENERA PHARMA LTD., priority 2012, published 2015).
Values joined by “and” are separate entries in the source; they are usually repeats but may differ in a detail not shown here. Equal values may be shown once.

Tests used:
3T3 cells = assay: Cytotoxicity in 3T3 cells (XTT kit); type: cell-based; conditions: DMSO 10% control; 48 hr; single well of triplicate
Procedure: 3T3 cells (ATCC; CRL-1658) were seeded in a 96 well plate (4×10^3 cells per well), and 24 hr following cell adherence, cells were treated (in triplicate) with different concentrations (1-50 mg/ml) of the test items, or with the control items cottonseed oil alone, or 10% DMSO, or were left untreated. All treatments were introduced in a final volume of […] within a total volume of 100 μl/well. Cytotoxicity was determined 48 hr after additional of test items, using the XTT kit (Biological industries, Israel). Raw data was analyzed using Prism4 statistical software following blank reduction. The cottonseed oil vehicle treated control was used to calculate 100% viability and OD % was calculated.

ARPE-19 cells = assay: Neuronal-like differentiation of ARPE-19 retinal pigment epithelial cell cultures; type: cell-based, human; conditions: 2-10% w/w in cottonseed oil, compared to vehicle control
Procedure: ARPE-19 cells (obtained from the American Type Culture Collection, ATCC) were plated in flat bottom 96 well tissue culture microplates (Costar) at a concentration of 2-5×10^3 cells per well (1-2.5×10^4 cells/mL) in a growth medium consisting of DMEM:Ham F-12, 1:1, supplemented with 10% Fetal Bovine Serum, […] glutamine, 100 units/mL penicillin and 100 μg/mL streptomycin. The cells were allowed to adhere to the plate surfaces overnight prior to treatment with either RPh-CY or RPh-SA.
RPh-CY and RPh-SA were prepared essentially as described in Examples 2 and 4 respectively, to provide 10% solutions in a carrier composed of grape seed oil, olive oil, cottonseed oil, and Mygliol® (Mygliol® 810 or Mygliol® 812). […]
The cultures were incubated in a 37° C., 5% CO2 incubator for 48 hr. The medium was then removed, the cultures washed twice with phosphate buffered saline (PBS), fixed with absolute methanol for 10 min and stained with Hemacolor® reagents (Boehringer Mannheim), which stain cells in a manner similar to Giemsa, and may be used in a quantitative cell viability assay (see Keisari, Y. A colorimetric microtiter assay for the quantitation of cytokine activity on adherent cells in tissue culture. J. Immunol. Methods 146, 155-161, 1992). […]

| SMILES | OD at 450 (XTT) (3T3 cells) | change in ARPE-19 RPE cells (neurodifferentiation assay) (ARPE-19 cells) |
| --- | --- | --- |
| C[S+](C)[O-] [DMSO] | 0.238 and 0.233 and 0.234 | – |
| CC(C)c1c(O)ccc2c1CC[C@H]1C(C)(C)CCC[C@]21C [totarol] | – | induced no change |
